Where no end group is shown, it is not given here.
Experiments:
MFF knockout MEFs = test: Mitochondrial membrane potential (TMRM), MFF knockout MEFs; type: cell-based, mouse; conditions: 20 µM P259 overnight, vs no peptide; 3 independent experiments, three technical replicates; ns p = 0.93
Protocol: Data are of 3 independent experiments with the whiskers calculated by the Turkey method. e. […]
determined by an unpaired, two -tailed t test). g. […]
control (no peptide treatment). Data are mean ± s.e. from 3 independent experiments. […]
and without phenol red. […] After incubation
HEPES, and without phenol red. […]
epifluorescence microscope with a 10X objective (Keyence). The Cy5 filter (Keyence) was used to autofocus on the mitochondria plane. […]
Mitochondrial membrane potential determination
After treatment, cells were washed with
Cells were incubated in a 37
°C incubator for 30 minutes. […]

Mff-Drp1 interaction = test: Co-immunoprecipitation of recombinant Drp1 with Mff; type: binding, human; conditions: 1 µM P259, 2 hours at 4 °C, 200 ng Drp1, 200 ng adaptor, RIPA buffer; representative blot of two independent experiments
From the text: Figure 1 Rational peptide design identifies a novel inhibitor of the Mff-Drp1 protein-protein interaction. (a) A scheme of the rationale behind the inhibitor design. […] Surface and ribbon diagrams of Drp1 structure (PDB, 4BEJ) with the GTPase, bundle signaling element (BSE), and stalk domains highlighted. (d) A heatmap representing sequence conservation of human proteins that contain a region similar to P259. Sequence conservation corresponds to the number of residues similar/identical to P259 from each sequence. […] The obtained graph is of the mean standardized response and ± s.e. as a function of time for n = 3 individual experiments, with 3 technical replicates each. […]
Protein binding to the surface was obtained through current measurements during a voltage sweep by a potentiostat. […] After calibration with 30 µL RIPA buffer for 3 minutes, […] of 100 nM protein was incubated over the surface for 3 minutes as sensor response w as measured. Disso ciation was measured by re-applying 30 µL of RIPA buffer. […]
The standardized response value was calculated by the following equation: […]
KD values were subsequently calculated using the binding and dissociation curves and the analysis software provided by the manufacturer (Nanomedical Diagnostics). […]
Protein content was measured using Bradford protein assay dye (Bio-Rad, CA, USA) and subsequently standardized. […]

[1] = test system: Drp1 with Fis1/Mid49/Mid51; test: Co-immunoprecipitation of recombinant Drp1 with the other adaptors; type: binding; conditions: 1 µM P259, 2 hours at 4 °C, 200 ng Drp1, 200 ng adaptor, RIPA buffer; representative blot of two independent experiments

YGRKKRRQRRRGSGIIQLPEIVVV-NH2 (C-terminus assumed) [P259]
effect on mitochondrial membrane potential, Mff knockout MEFs (MFF knockout MEFs): insensitive | Mff binding to co-immunoprecipitated recombinant Drp1 (Mff-Drp1 interaction): abolished Mff binding | binding of other receptors (Fis1, Mid49, Mid51) to co-immunoprecipitated recombinant Drp1 [1]: without affecting the binding of any other receptor

From PMC6145916, “Interaction of mitochondrial fission factor with dynamin related protein 1 governs physiological mitochondrial function in vivo” (Scientific Reports, 2018)
